# Results reported in ChEMBL document CHEMBL5442219.
# Experiments:
# Conditions in all cases: Compound concentration 10 µM
# [1] = molecular target: Beta-2 adrenergic receptor (Homo sapiens) (UniProt P07550)
# Description: PDSP Primary Binding target: ADRB2 - Compounds are tested at 10 uM concentration, plate are incubated at room temperature in the dark for 90 minutes. Reaction are stopped by vacuum filtration onto 0.3% polyethyleneimine soaked filter mats using Filtermate harvester. Scintilation cocktail is then melted onto microwave-dried filters on a hot plate and the radio activity is counted in Microbia counter.
# [2] = molecular target: 5-hydroxytryptamine receptor 1E (Homo sapiens) (UniProt P28566)
# Description: PDSP Primary Binding target: HTR1E - Compounds are tested at 10 uM concentration, plate are incubated at room temperature in the dark for 90 minutes. Reaction are stopped by vacuum filtration onto 0.3% polyethyleneimine soaked filter mats using Filtermate harvester. Scintilation cocktail is then melted onto microwave-dried filters on a hot plate and the radio activity is counted in Microbia counter.
# [3] = molecular target: Beta-1 adrenergic receptor (Homo sapiens) (UniProt P08588)
# Description: PDSP Primary Binding target: ADRB1 - Compounds are tested at 10 uM concentration, plate are incubated at room temperature in the dark for 90 minutes. Reaction are stopped by vacuum filtration onto 0.3% polyethyleneimine soaked filter mats using Filtermate harvester. Scintilation cocktail is then melted onto microwave-dried filters on a hot plate and the radio activity is counted in Microbia counter.
# [4] = molecular target: 5-hydroxytryptamine receptor 1B (Homo sapiens) (UniProt P28222)
# Description: PDSP Primary Binding target: HTR1B - Compounds are tested at 10 uM concentration, plate are incubated at room temperature in the dark for 90 minutes. Reaction are stopped by vacuum filtration onto 0.3% polyethyleneimine soaked filter mats using Filtermate harvester. Scintilation cocktail is then melted onto microwave-dried filters on a hot plate and the radio activity is counted in Microbia counter.
# [5] = molecular target: D(1A) dopamine receptor (Homo sapiens) (UniProt P21728)
# Description: PDSP Primary Binding target: DRD1 - Compounds are tested at 10 uM concentration, plate are incubated at room temperature in the dark for 90 minutes. Reaction are stopped by vacuum filtration onto 0.3% polyethyleneimine soaked filter mats using Filtermate harvester. Scintilation cocktail is then melted onto microwave-dried filters on a hot plate and the radio activity is counted in Microbia counter.
# [6] = molecular target: T1, Alpha-1A adrenergic receptor (Homo sapiens) (UniProt P35348)
# T1 sequence (whole entry): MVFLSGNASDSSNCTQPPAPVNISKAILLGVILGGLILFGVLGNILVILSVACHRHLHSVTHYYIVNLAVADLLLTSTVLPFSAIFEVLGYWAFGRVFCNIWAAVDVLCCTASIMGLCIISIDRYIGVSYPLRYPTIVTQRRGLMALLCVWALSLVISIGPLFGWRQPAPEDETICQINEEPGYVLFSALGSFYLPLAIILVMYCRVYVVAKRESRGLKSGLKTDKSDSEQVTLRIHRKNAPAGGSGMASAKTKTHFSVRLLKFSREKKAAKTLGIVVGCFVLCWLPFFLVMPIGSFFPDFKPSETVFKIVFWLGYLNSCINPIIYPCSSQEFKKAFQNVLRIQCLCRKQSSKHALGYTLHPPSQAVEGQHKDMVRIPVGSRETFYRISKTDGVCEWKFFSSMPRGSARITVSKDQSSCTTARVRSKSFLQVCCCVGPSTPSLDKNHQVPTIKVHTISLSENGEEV
# Description: PDSP Primary Binding target: ADRA1A - Compounds are tested at 10 uM concentration, plate are incubated at room temperature in the dark for 90 minutes. Reaction are stopped by vacuum filtration onto 0.3% polyethyleneimine soaked filter mats using Filtermate harvester. Scintilation cocktail is then melted onto microwave-dried filters on a hot plate and the radio activity is counted in Microbia counter.
# [7] = molecular target: 5-hydroxytryptamine receptor 6 (Homo sapiens) (UniProt P50406)
# Description: PDSP Primary Binding target: HTR6 - Compounds are tested at 10 uM concentration, plate are incubated at room temperature in the dark for 90 minutes. Reaction are stopped by vacuum filtration onto 0.3% polyethyleneimine soaked filter mats using Filtermate harvester. Scintilation cocktail is then melted onto microwave-dried filters on a hot plate and the radio activity is counted in Microbia counter.
# [8] = molecular target: T2, D(4) dopamine receptor (Homo sapiens) (UniProt P21917)
# T2 sequence (whole entry): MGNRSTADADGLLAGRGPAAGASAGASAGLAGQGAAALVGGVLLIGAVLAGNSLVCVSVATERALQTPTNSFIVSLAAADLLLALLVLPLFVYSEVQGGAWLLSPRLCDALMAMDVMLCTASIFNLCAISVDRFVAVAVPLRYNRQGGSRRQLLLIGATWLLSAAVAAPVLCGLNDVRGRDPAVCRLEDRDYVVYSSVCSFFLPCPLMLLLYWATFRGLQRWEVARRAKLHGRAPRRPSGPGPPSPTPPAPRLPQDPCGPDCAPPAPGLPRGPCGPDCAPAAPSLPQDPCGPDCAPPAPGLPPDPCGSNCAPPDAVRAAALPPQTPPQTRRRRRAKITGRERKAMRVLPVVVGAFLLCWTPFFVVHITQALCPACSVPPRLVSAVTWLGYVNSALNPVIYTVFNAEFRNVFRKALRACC
# Description: PDSP Primary Binding target: DRD4 - Compounds are tested at 10 uM concentration, plate are incubated at room temperature in the dark for 90 minutes. Reaction are stopped by vacuum filtration onto 0.3% polyethyleneimine soaked filter mats using Filtermate harvester. Scintilation cocktail is then melted onto microwave-dried filters on a hot plate and the radio activity is counted in Microbia counter.
# [9] = molecular target: T3, 5-hydroxytryptamine receptor 1A (Homo sapiens) (UniProt P08908)
# T3 sequence (whole entry): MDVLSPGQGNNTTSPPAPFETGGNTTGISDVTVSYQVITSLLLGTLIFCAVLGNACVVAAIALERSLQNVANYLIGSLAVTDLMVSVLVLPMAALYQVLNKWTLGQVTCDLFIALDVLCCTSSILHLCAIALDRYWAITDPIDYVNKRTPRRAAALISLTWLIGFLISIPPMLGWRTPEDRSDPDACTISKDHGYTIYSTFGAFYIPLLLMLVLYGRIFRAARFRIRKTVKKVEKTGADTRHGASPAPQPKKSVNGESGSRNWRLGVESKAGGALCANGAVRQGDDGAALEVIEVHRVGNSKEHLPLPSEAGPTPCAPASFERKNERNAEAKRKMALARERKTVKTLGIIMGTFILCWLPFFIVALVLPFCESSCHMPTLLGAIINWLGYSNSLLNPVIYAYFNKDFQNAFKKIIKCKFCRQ
# Description: PDSP Primary Binding target: HTR1A - Compounds are tested at 10 uM concentration, plate are incubated at room temperature in the dark for 90 minutes. Reaction are stopped by vacuum filtration onto 0.3% polyethyleneimine soaked filter mats using Filtermate harvester. Scintilation cocktail is then melted onto microwave-dried filters on a hot plate and the radio activity is counted in Microbia counter.
# [10] = molecular target: Kappa-type opioid receptor (Homo sapiens) (UniProt P41145)
# Description: PDSP Primary Binding target: OPRK1 - Compounds are tested at 10 uM concentration, plate are incubated at room temperature in the dark for 90 minutes. Reaction are stopped by vacuum filtration onto 0.3% polyethyleneimine soaked filter mats using Filtermate harvester. Scintilation cocktail is then melted onto microwave-dried filters on a hot plate and the radio activity is counted in Microbia counter.
# [11] = molecular target: Translocator protein (Homo sapiens) (UniProt P30536)
# Description: PDSP Primary Binding target: TSPO - Compounds are tested at 10 uM concentration, plate are incubated at room temperature in the dark for 90 minutes. Reaction are stopped by vacuum filtration onto 0.3% polyethyleneimine soaked filter mats using Filtermate harvester. Scintilation cocktail is then melted onto microwave-dried filters on a hot plate and the radio activity is counted in Microbia counter.
# [12] = molecular target: D(2) dopamine receptor (Homo sapiens) (UniProt P14416)
# Description: PDSP Primary Binding target: DRD2 - Compounds are tested at 10 uM concentration, plate are incubated at room temperature in the dark for 90 minutes. Reaction are stopped by vacuum filtration onto 0.3% polyethyleneimine soaked filter mats using Filtermate harvester. Scintilation cocktail is then melted onto microwave-dried filters on a hot plate and the radio activity is counted in Microbia counter.
# [13] = molecular target: T4, Alpha-2B adrenergic receptor (Homo sapiens) (UniProt P18089)
# T4 sequence (whole entry): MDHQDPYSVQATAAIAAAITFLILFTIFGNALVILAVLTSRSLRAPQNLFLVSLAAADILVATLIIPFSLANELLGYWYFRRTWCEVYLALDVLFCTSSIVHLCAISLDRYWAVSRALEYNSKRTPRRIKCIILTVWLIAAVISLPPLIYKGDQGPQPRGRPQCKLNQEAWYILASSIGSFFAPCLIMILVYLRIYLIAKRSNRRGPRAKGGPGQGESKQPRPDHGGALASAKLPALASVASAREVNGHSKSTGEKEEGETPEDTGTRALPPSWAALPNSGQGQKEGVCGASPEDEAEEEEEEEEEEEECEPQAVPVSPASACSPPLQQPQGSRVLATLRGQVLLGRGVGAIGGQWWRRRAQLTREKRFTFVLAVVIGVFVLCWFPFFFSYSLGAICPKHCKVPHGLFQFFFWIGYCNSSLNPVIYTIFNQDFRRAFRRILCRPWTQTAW
# Description: PDSP Primary Binding target: ADRA2B - Compounds are tested at 10 uM concentration, plate are incubated at room temperature in the dark for 90 minutes. Reaction are stopped by vacuum filtration onto 0.3% polyethyleneimine soaked filter mats using Filtermate harvester. Scintilation cocktail is then melted onto microwave-dried filters on a hot plate and the radio activity is counted in Microbia counter.
# [14] = molecular target: 5-hydroxytryptamine receptor 5A (Homo sapiens) (UniProt P47898)
# Description: PDSP Primary Binding target: HTR5A - Compounds are tested at 10 uM concentration, plate are incubated at room temperature in the dark for 90 minutes. Reaction are stopped by vacuum filtration onto 0.3% polyethyleneimine soaked filter mats using Filtermate harvester. Scintilation cocktail is then melted onto microwave-dried filters on a hot plate and the radio activity is counted in Microbia counter.
# [15] = molecular target: Sodium-dependent dopamine transporter (Homo sapiens) (UniProt Q01959)
# Description: PDSP Primary Binding target: SLC6A3 - Compounds are tested at 10 uM concentration, plate are incubated at room temperature in the dark for 90 minutes. Reaction are stopped by vacuum filtration onto 0.3% polyethyleneimine soaked filter mats using Filtermate harvester. Scintilation cocktail is then melted onto microwave-dried filters on a hot plate and the radio activity is counted in Microbia counter.
# [16] = molecular target: T5, Muscarinic acetylcholine receptor M4 (Homo sapiens) (UniProt P08173)
# T5 sequence (whole entry): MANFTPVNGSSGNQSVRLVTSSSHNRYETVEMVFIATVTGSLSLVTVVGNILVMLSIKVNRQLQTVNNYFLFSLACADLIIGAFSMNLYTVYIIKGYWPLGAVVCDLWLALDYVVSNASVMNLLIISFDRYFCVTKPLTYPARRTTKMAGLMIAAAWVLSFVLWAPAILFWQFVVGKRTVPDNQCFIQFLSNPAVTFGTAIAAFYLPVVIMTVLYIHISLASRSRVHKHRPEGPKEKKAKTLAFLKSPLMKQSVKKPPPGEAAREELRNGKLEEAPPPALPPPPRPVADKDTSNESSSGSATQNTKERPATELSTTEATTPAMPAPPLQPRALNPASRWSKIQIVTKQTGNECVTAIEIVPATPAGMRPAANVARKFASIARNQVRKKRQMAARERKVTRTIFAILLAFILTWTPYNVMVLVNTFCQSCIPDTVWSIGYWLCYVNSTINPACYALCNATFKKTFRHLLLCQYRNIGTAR
# Description: PDSP Primary Binding target: CHRM4 - Compounds are tested at 10 uM concentration, plate are incubated at room temperature in the dark for 90 minutes. Reaction are stopped by vacuum filtration onto 0.3% polyethyleneimine soaked filter mats using Filtermate harvester. Scintilation cocktail is then melted onto microwave-dried filters on a hot plate and the radio activity is counted in Microbia counter.
# Sequence of Translocator protein (Homo sapiens) (P30536 whole entry): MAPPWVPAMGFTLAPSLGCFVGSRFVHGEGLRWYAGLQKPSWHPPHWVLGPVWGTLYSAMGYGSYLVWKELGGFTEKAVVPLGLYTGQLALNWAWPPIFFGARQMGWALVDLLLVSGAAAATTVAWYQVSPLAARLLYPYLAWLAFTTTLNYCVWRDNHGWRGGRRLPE
# Sequence of D(1A) dopamine receptor (Homo sapiens) (P21728 whole entry): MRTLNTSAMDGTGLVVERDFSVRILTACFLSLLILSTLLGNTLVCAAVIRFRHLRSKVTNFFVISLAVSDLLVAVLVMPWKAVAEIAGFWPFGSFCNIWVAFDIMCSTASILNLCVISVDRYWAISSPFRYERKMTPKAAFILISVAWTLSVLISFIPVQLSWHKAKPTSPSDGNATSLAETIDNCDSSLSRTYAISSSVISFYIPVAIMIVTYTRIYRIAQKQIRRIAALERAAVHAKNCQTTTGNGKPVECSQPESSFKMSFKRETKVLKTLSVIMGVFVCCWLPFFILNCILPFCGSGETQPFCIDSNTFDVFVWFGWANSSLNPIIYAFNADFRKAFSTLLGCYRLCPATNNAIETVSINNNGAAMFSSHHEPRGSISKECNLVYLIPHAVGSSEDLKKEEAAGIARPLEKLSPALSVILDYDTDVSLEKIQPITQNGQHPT
# Sequence of 5-hydroxytryptamine receptor 6 (Homo sapiens) (P50406 whole entry): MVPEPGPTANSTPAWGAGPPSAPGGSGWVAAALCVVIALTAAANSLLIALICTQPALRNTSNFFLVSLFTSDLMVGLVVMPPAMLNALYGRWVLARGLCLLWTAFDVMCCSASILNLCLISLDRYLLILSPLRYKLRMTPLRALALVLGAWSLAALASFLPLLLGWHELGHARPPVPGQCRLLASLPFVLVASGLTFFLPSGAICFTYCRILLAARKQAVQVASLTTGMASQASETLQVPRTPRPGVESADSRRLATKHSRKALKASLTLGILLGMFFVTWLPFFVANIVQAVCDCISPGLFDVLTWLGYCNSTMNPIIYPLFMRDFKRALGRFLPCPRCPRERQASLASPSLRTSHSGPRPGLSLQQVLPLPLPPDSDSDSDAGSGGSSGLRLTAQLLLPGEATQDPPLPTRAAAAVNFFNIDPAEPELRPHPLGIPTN
# Sequence of 5-hydroxytryptamine receptor 1B (Homo sapiens) (P28222 whole entry): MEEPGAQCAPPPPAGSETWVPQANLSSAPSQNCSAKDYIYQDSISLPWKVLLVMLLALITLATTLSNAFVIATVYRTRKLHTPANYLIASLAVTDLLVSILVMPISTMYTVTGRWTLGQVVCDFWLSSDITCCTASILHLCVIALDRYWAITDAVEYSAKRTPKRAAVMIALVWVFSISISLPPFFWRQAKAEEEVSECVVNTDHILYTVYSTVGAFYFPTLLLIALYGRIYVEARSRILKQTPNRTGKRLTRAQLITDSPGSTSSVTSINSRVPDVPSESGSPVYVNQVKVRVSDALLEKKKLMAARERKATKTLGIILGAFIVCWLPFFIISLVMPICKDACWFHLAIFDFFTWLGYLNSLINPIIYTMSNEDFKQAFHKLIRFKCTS
# Sequence of D(2) dopamine receptor (Homo sapiens) (P14416 whole entry): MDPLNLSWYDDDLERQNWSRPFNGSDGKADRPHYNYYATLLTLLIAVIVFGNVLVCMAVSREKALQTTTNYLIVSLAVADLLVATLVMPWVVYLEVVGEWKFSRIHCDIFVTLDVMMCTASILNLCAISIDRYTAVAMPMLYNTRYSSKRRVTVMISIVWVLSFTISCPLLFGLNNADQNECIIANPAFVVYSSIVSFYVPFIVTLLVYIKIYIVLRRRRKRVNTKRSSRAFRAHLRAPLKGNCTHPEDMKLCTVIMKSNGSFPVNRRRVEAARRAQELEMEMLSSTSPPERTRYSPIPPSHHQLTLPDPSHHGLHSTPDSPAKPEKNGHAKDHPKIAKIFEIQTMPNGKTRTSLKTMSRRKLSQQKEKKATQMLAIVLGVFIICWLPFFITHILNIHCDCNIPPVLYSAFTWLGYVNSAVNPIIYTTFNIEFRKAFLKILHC
# Sequence of Kappa-type opioid receptor (Homo sapiens) (P41145 whole entry): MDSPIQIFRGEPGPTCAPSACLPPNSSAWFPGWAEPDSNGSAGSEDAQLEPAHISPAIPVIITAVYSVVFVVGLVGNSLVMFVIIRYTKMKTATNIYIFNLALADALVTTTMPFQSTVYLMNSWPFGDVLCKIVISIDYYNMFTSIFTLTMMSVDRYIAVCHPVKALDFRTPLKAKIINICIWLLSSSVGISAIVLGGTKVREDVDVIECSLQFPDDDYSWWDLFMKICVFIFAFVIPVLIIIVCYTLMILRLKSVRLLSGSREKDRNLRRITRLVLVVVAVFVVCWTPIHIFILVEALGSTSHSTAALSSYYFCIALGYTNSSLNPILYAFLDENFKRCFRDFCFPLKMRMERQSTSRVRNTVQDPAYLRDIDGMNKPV
# Sequence of 5-hydroxytryptamine receptor 1E (Homo sapiens) (P28566 whole entry): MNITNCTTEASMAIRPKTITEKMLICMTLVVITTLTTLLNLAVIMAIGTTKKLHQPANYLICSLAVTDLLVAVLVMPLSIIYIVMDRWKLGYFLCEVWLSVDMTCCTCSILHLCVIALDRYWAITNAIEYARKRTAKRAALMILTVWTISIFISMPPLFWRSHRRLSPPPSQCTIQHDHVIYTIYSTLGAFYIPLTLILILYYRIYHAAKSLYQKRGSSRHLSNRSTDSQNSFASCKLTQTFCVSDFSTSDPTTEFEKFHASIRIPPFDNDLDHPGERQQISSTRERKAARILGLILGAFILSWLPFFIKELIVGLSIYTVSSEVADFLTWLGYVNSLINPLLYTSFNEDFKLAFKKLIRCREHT
# Sequence of Beta-2 adrenergic receptor (Homo sapiens) (P07550 whole entry, looked up): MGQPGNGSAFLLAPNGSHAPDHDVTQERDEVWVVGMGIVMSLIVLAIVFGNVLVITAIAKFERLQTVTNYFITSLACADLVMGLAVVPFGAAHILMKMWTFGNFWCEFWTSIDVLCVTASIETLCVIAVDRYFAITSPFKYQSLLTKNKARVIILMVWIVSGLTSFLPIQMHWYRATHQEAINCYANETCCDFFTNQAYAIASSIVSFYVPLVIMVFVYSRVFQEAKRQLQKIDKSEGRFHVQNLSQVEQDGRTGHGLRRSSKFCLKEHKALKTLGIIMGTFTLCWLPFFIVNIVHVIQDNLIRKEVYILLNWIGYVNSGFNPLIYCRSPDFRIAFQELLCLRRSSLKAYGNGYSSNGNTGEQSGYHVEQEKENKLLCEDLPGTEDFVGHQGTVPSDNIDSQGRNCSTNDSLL
# Sequence of Sodium-dependent dopamine transporter (Homo sapiens) (Q01959 whole entry): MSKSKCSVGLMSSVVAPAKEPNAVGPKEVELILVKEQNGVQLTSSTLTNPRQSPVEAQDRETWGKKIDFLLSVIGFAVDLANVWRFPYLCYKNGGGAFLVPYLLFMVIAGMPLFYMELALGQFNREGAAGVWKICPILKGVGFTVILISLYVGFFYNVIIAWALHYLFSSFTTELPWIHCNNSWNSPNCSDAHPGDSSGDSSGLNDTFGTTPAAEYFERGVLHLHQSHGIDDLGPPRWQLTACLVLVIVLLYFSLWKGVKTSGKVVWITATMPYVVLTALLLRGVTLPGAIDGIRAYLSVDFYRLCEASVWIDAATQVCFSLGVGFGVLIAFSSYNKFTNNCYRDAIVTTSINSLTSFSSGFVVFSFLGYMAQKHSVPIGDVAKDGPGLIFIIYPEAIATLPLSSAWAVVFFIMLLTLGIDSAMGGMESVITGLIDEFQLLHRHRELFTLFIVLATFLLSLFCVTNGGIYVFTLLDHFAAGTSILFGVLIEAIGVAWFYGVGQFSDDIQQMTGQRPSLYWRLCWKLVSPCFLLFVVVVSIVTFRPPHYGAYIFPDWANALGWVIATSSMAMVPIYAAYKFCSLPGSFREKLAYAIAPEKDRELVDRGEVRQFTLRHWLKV
# Sequence of 5-hydroxytryptamine receptor 5A (Homo sapiens) (P47898 whole entry): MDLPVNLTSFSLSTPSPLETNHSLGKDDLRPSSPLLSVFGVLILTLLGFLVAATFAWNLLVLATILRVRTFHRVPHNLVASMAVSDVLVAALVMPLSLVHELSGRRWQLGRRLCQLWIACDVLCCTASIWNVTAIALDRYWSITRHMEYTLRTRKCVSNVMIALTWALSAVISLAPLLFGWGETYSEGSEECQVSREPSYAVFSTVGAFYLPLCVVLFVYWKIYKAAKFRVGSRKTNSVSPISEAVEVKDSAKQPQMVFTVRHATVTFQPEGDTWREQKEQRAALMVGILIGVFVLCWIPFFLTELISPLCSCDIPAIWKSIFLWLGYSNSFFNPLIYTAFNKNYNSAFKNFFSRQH
# Sequence of Beta-1 adrenergic receptor (Homo sapiens) (P08588 whole entry, looked up): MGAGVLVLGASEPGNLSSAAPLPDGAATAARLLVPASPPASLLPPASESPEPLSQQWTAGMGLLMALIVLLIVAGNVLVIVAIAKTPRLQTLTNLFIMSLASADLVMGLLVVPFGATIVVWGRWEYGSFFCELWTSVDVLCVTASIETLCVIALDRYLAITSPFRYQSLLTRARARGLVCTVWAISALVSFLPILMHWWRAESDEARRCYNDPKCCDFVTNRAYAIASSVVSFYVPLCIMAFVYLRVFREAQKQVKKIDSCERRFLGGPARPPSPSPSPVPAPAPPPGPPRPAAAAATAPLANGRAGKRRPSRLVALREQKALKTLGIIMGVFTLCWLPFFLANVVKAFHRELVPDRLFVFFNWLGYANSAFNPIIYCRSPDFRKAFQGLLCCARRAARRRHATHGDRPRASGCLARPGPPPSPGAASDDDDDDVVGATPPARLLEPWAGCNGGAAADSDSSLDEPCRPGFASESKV
Compound,inhibition [1] [%],inhibition [2] [%],inhibition [3] [%],inhibition [4] [%],inhibition [5] [%],inhibition [6] [%],inhibition [7] [%],inhibition [8] [%],inhibition [9] [%],inhibition [10] [%],inhibition [11] [%],inhibition [12] [%],inhibition [13] [%],inhibition [14] [%],inhibition [15] [%],inhibition [16] [%]
Cc1c(OCc2cccc(-c3ccc(C(=O)O)cc3)c2)cc2c(c1C)C(=O)C(C1CCCC1)C2 (centres undefined),-5.2,6.04,-9.82,4.33,-5.51,48.4,-3.02,44,-4.54,-0.11,17.6,-2.54,,,,
CC[C@@H]1CN2C(=O)N(C)c3nc(-c4ccccc4)[nH]c3C2=N1,65.2,23.8,21.2,6.19,,4.28,10.3,10.4,12,6.33,-3.48,,-5.85,14.4,0.34,
CCc1cc2c(c(CC)n1)CCC(=O)N2Cc1ccc(-c2ccccc2-c2nnn[nH]2)cc1,-4.26,-6.23,,11.5,-4.14,18.5,10.1,70,-4.87,3.59,45.9,37.9,3.95,-4.8,8.77,-4.36
CC(C)(N)C(=O)N[C@H](COCc1ccccc1)C(=O)N1CCC2(CC1)CN(S(C)(=O)=O)c1ccccc12,-3.52,14.1,30.4,,,3.39,5.9,,-5.57,17.4,9.25,22.7,-5.98,,39.5,
CN(C(=O)Cc1ccc(Cl)c(Cl)c1)C(CN1CCCC1)c1cccc(OCC(=O)O)c1 (centres undefined),-5.04,-3.71,20.5,11.1,,-0.83,0.97,-5.18,24.9,100,21.5,-3.77,5.65,1.89,26.4,
CCCCCNC(=N)N/N=C/c1c[nH]c2ccc(OC)cc12,54.7,20.5,,96.3,47.1,53.9,89,87.3,101,35.1,47.4,67.3,69,97.6,69.1,0.53
COc1ccc(S(=O)(=O)N2c3ccc(Cl)cc3[C@](O)(c3ccccc3Cl)[C@@H]2C(=O)N2CCC[C@H]2C(N)=O)cc1OC,6.53,,28.5,,,-4.04,-1.14,-3.97,8.75,16.3,,11.8,0.34,-7.91,42.4,
c1ccc(N2CCN(Cc3nc4ccccc4[nH]3)CC2)nc1,,6.29,13.5,6.19,,6.23,-0.41,87.2,35.1,54.7,6.18,22.3,,11.8,22.6,-4.29
COc1ccccc1CN[C@H]1C2CCN(CC2)[C@H]1C(c1ccccc1)c1ccccc1,,5,17,8.03,,-7.95,8.17,15.3,-1.15,49.1,30.2,9.32,3.23,19.7,40,-4.3
CC(C)C[C@H](NC(=O)N1CCCCCC1)C(=O)N[C@H](Cc1cn(C)c2ccccc12)C(=O)N[C@H](Cc1ccccn1)C(=O)O,-6.68,,-0.82,-2.58,,14.1,,,,-7.75,25.5,2.53,,,-1.54,0.19
C[C@@H](NCCCc1cccc(C(F)(F)F)c1)c1cccc2ccccc12,9.84,18,,27.5,8.33,38.5,69.1,48,87.7,79.3,13.5,25.8,39.4,81.9,70.4,-2.86
O=C(Cc1ccc(Cl)c(Cl)c1)N1CCCC[C@H]1CN1CCCC1,7.92,1.08,-3.57,10.4,,31.2,-5.65,79.7,-1.23,99.7,8.29,44.5,34.8,,52.7,16.7
N=C(N)SCCc1c[nH]cn1,6.81,26.2,3.8,8.52,,-6.16,-1.7,6.59,,5.15,5.09,-5.28,17.9,-5.14,-0.41,
